According to ChEMBL document CHEMBL5223181, “Incorporation of an Isohexide Subunit Improves the Drug-like Properties of Bioactive Compounds” (ACS Med Chem Lett, 2023):
Values after ≈ are worked out from the molar mass of the structure shown.

Experiments:
[1] = Solubility in simulated intestinal fluid at pH 6.8 at 30 uM incubated for 90 mins by HPLC-UV analysis; format: ADME
[2] = Solubility in simulated gastric fluid at pH 1.2 at 30 uM incubated for 90 mins by HPLC-UV analysis; format: ADME
[3] = Terminal half life in C57BL/6 mouse at 61 mg/kg, po and measured upto 24 hrs by LC-MS/MS analysis; format: ADME, organism-based; conditions: in vivo, read-out: beta t1/2 (converted)
[4] = Cmax in C57BL/6 mouse at 61 mg/kg, po and measured upto 24 hrs by LC-MS/MS analysis; format: ADME, organism-based; design: dose 61 mg/kg, time < 24 hrs, route po; conditions: in vivo
[5] = Solubility of compound in PBS at pH 9.0 at 30 uM incubated for 90 mins by HPLC-UV analysis; format: physicochemical
[6] = Solubility of compound in PBS at pH 7.4 at 30 uM incubated for 90 mins by HPLC-UV analysis; format: physicochemical
[7] = AUC (0-infinity) in C57BL/6 mouse at 61 mg/kg, po and measured upto 24 hrs by LC-MS/MS analysis; format: ADME, organism-based; design: dose 61 mg/kg, time < 24 hrs, route po; conditions: in vivo
[8] = Solubility in simulated intestinal fluid at pH 6.8 at 30 uM incubated for 90 mins in presence of 0.5% SDS by HPLC-UV analysis; format: ADME
[9] = AUC (0-t) in C57BL/6 mouse at 61 mg/kg, po and measured for 4 to 10 hrs by LC-MS/MS analysis; format: ADME, organism-based; design: time lower 4 hrs, dose 61 mg/kg, time upper 10 hrs, route po; conditions: in vivo
[10] = Dissociation constant, pKa of the compound at 10 mM incubated for 16 hrs with shaking by HPLC-UV analysis; format: physicochemical
[11] = Solubility in simulated gastric fluid at pH 1.2 at 30 uM incubated for 90 mins in presence of 0.5% SDS by HPLC-UV analysis; format: ADME
[12] = AUC (0-t) in C57BL/6 mouse at 80 mg/kg, po and measured for 4 to 10 hrs by LC-MS/MS analysis; format: ADME, organism-based; design: time upper 10 hrs, dose 80 mg/kg, time lower 4 hrs, route po; conditions: in vivo
[13] = Cmax in C57BL/6 mouse at 80 mg/kg, po and measured upto 24 hrs by LC-MS/MS analysis; format: ADME, organism-based; design: time < 24 hrs, dose 80 mg/kg, route po; conditions: in vivo
[14] = target: Epidermal growth factor receptor (Homo sapiens, UniProt P00533); test: Inhibition of human EGFR
[15] = AUC (0-infinity) in C57BL/6 mouse at 80 mg/kg, po and measured upto 24 hrs by LC-MS/MS analysis; format: ADME, organism-based; design: time < 24 hrs, dose 80 mg/kg, route po; conditions: in vivo
[16] = Terminal half life in C57BL/6 mouse at 80 mg/kg, po and measured upto 24 hrs by LC-MS/MS analysis; format: ADME, organism-based; conditions: in vivo, read-out: beta t1/2 (converted)
[17] = Apparent permeability of compound at 20 mM and measured after 16 hrs by PAMPA assay; format: ADME
[18] = Prodrug conversion in C57BL/6 mouse plasma assessed as half life of (S)-2-(2-chloro-6-methylbenzamido)-3-(4-(1,3,6-trimethyl-2,4-dioxo-1,2,3,4-tetrahydropyrimidin-5-yl)phenyl)propanoic acid metabolite at 63.5 mg/kg,po and measured upto 24 hrs by LC-MS/MS analysis; format: ADME, organism-based; conditions: in vivo
[19] = Apparent permeability across apical to basolateral side in dog MDCK-MDR1 cells at 5 uM incubated for 60 mins by LC-MS/MS analysis; format: ADME, cell-based, Canis lupus familiaris
[20] = Prodrug conversion in C57BL/6 mouse plasma assessed as (S)-2-(2-chloro-6-methylbenzamido)-3-(4-(1,3,6-trimethyl-2,4-dioxo-1,2,3,4-tetrahydropyrimidin-5-yl)phenyl)propanoic acid metabolite level at 100 mg/kg, po and measured after 6 hrs LC-MS/MS analysis; format: ADME, organism-based; conditions: in vivo
[21] = Prodrug conversion in C57BL/6 mouse plasma assessed as AUC (0 to 6 hrs) of (S)-2-(2-chloro-6-methylbenzamido)-3-(4-(1,3,6-trimethyl-2,4-dioxo-1,2,3,4-tetrahydropyrimidin-5-yl)phenyl)propanoic acid metabolite at 63.5 mg/kg,po and measured upto 24 hrs by LC-MS/MS analysis; format: ADME, organism-based; design: time < 24 hrs, dose 63.5 mg/kg, route po; conditions: in vivo
[22] = Prodrug conversion in C57BL/6 mouse plasma assessed as(S)-2-(2-chloro-6-methylbenzamido)-3-(4-(1,3,6-trimethyl-2,4-dioxo-1,2,3,4-tetrahydropyrimidin-5-yl)phenyl)propanoic acid metabolite level at 100 mg/kg, po and measured after 3 hrs LC-MS/MS analysis; format: ADME, organism-based; conditions: in vivo
[23] = Prodrug conversion in C57BL/6 mouse colon assessed as (S)-2-(2-chloro-6-methylbenzamido)-3-(4-(1,3,6-trimethyl-2,4-dioxo-1,2,3,4-tetrahydropyrimidin-5-yl)phenyl)propanoic acid metabolite level at 100 mg/kg, po and measured after 6 hrs LC-MS/MS analysis; format: ADME, organism-based; conditions: in vivo
[24] = Oral bioavailability in C57BL/6 mouse plasma at 63.5 mg/kg and measured upto 24 hrs by LC-MS/MS analysis; format: ADME, organism-based
[25] = Prodrug conversion in C57BL/6 mouse plasma assessed as Cmax of (S)-2-(2-chloro-6-methylbenzamido)-3-(4-(1,3,6-trimethyl-2,4-dioxo-1,2,3,4-tetrahydropyrimidin-5-yl)phenyl)propanoic acid metabolite at 63.5 mg/kg,po and measured upto 24 hrs by LC-MS/MS analysis; format: ADME, organism-based; design: dose 63.5 mg/kg, time < 24 hrs, route po; conditions: in vivo
[26] = Prodrug conversion in C57BL/6 mouse plasma assessed as Tmax of (S)-2-(2-chloro-6-methylbenzamido)-3-(4-(1,3,6-trimethyl-2,4-dioxo-1,2,3,4-tetrahydropyrimidin-5-yl)phenyl)propanoic acid metabolite at 63.5 mg/kg,po and measured upto 24 hrs by LC-MS/MS analysis; format: ADME, organism-based; conditions: in vivo
[27] = Prodrug conversion in C57BL/6 mouse colon assessed as (S)-2-(2-chloro-6-methylbenzamido)-3-(4-(1,3,6-trimethyl-2,4-dioxo-1,2,3,4-tetrahydropyrimidin-5-yl)phenyl)propanoic acid metabolite level at 100 mg/kg, po and measured after 3 hrs LC-MS/MS analysis; format: ADME, organism-based; conditions: in vivo
[28] = Octanol/water partition coefficient, logD of the compound at pH 7.4 at 10 mM incubated for 16 hrs with shaking by HPLC-UV analysis; format: physicochemical
[29] = Cmax in C57BL/6 mouse plasma at 50 mg/kg,po and measured upto 24 hrs by LC-MS/MS analysis; format: ADME, organism-based; design: dose 50 mg/kg, time < 24 hrs, route po
[30] = AUC (0-6 hrs) in C57BL/6 mouse plasma at 50 mg/kg,po and measured upto 24 hrs by LC-MS/MS analysis; format: ADME, organism-based; design: dose 50 mg/kg, time < 24 hrs, route po
[31] = Oral bioavailability in C57BL/6 mouse plasma at 50 mg/kg and measured upto 24 hrs by LC-MS/MS analysis; format: ADME, organism-based
[32] = Half life in C57BL/6 mouse plasma at 50 mg/kg,po and measured upto 24 hrs by LC-MS/MS analysis; format: ADME, organism-based
[33] = Tmax in C57BL/6 mouse plasma at 50 mg/kg,po and measured upto 24 hrs by LC-MS/MS analysis; format: ADME, organism-based

Chain of Epidermal growth factor receptor (P00533 whole entry): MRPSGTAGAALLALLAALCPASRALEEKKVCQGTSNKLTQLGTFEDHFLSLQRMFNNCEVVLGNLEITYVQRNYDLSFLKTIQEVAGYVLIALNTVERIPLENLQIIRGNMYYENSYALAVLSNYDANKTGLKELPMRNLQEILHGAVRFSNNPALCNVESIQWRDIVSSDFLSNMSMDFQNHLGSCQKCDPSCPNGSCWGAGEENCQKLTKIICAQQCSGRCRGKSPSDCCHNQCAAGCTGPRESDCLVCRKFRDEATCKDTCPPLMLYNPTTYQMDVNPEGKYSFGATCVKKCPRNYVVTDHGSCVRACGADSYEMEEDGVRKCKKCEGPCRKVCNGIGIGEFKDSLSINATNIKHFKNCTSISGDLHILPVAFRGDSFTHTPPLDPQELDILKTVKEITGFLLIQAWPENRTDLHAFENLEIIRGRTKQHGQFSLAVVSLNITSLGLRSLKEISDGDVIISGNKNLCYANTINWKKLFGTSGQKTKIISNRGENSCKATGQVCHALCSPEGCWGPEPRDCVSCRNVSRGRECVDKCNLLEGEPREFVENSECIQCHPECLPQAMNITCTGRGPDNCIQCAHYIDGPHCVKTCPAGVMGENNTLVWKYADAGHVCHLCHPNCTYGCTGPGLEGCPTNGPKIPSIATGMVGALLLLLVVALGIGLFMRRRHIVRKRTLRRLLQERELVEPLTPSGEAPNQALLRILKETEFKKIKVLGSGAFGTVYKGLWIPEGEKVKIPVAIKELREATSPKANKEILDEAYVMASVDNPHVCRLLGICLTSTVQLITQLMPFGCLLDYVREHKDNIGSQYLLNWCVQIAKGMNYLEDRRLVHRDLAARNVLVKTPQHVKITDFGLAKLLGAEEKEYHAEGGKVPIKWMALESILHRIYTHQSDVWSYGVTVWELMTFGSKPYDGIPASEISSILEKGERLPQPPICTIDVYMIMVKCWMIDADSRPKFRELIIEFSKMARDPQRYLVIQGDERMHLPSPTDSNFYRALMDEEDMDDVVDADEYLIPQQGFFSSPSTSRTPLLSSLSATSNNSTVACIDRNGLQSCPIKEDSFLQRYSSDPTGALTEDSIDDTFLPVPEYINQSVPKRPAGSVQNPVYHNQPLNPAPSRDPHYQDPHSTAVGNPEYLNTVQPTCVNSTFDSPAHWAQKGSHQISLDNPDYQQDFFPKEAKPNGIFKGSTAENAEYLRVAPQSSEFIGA

solubility at 1.5 h, 30 µM [1] [µg/mL] | solubility at 1.5 h, 30 µM [2] [µg/mL] | half-life [3] [h] | solubility at 1.5 h, 30 µM [5] [µg/mL] | solubility at 1.5 h, 30 µM [6] [µg/mL] | solubility at 1.5 h, 30 µM [8] [µg/mL] | pKa at 16 h, 10000 µM [10] | solubility at 1.5 h, 30 µM [11] [µg/mL] | Papp at 16 h, 20000 µM [17] [×10⁻⁶ cm/s] | Papp A→B at 1 h, 5 µM [19] [×10⁻⁶ cm/s] | logD at 16 h, 10000 µM [28] | Structure (SMILES) | other results
51.7 (≈ 155 µM) | 49.4 (≈ 148 µM) | 1.9 | 1.53 (≈ 4.58 µM) | 1.3 (≈ 3.9 µM) | 63.9 | 4.51 | 23.6 | – | – | – | COc1cc2ncnc(Nc3ccc(F)c(Cl)c3)c2cc1OC | Cmax [4]: 7440 ng/mL; AUC(0-inf) [7]: 26300 ng·h/mL; AUC(0-t) [9]: 25500 ng·h/mL
65.4 (≈ 142 µM) | 87.9 (≈ 191 µM) | 1.19 | 45.4 (≈ 98.7 µM) | 19.8 (≈ 43.1 µM) | 80.8 | 5 | 56 | 7.45 | – | – | COc1cc2ncnc(Nc3ccc(O[C@H]4CO[C@H]5[C@@H]4OC[C@@H]5O)c(Cl)c3)c2cc1OC | AUC(0-t) [12]: 44500 ng·h/mL; Cmax [13]: 30100 ng/mL; IC50 [14]: 5.3 nM; AUC(0-inf) [15]: 44500 ng·h/mL; half-life [16]: 1.19 h
99.6 (≈ 167 µM) | 126 (≈ 210 µM) | – | – | 107 (≈ 179 µM) | – | 7.9 | – | 1.68 | 2.5 | 1.2 | Cc1cccc(Cl)c1C(=O)N[C@@H](Cc1ccc(-c2c(C)n(C)c(=O)n(C)c2=O)cc1)C(=O)O[C@H]1CO[C@H]2[C@@H]1OC[C@@H]2O | t1/2 [18]: 1.63 h; Drug metabolism [20]: 200 ng/mL; AUC [21]: 2100 ng·h/mL; Drug metabolism [22]: 500 ng/mL; Drug metabolism [23]: 100000 ng/g; bioavailability [24]: 12%; Cmax [25]: 3193 ng/mL; Tmax [26]: 0.25 h; Drug metabolism [27]: 200000 ng/g
91.9 (≈ 196 µM) | 94.7 (≈ 202 µM) | – | – | 95.4 (≈ 203 µM) | – | 3.4 | – | – | 1.3 | -1.1 | Cc1cccc(Cl)c1C(=O)N[C@@H](Cc1ccc(-c2c(C)n(C)c(=O)n(C)c2=O)cc1)C(=O)O | Cmax [29]: 425 ng/mL; AUC(0-t) at 24 h [30]: 616 ng·h/mL; bioavailability [31]: < 1%; half-life [32]: 0.67 h; Tmax [33]: 1 h
